Data as given in publication PMC5706701, “Development of a homogenous high-throughput assay for inositol hexakisphosphate kinase 1 activity” (PLoS ONE, 2017).
Structures can show the parent of a compound that is named as a salt.

Biological target: T1, Human IP6K1 (Homo sapiens, UniProt Q92551)
T1 construct: GST (N, cleaved yes); made in house; host or cells: C43 E. coli, pGEX-6P-2
Test: IP6K1 high-throughput screen of the Sigma LOPAC (ADP-Glo Max, single point);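 further: final compound concentration 10µM in 5% DMSO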
Type: biochemical

[1] = LOPAC single-point screen, ADP-Glo Max raw signal per well
[2] = LOPAC single-point screen, Z-score from raw signal with plate average and StDev
[3] = LOPAC single-point screen, ADP-Glo Max luminescence raw signal per well
[4] = LOPAC single-point screen, Z-score relative to plate average and StDev
[5] = LOPAC single-point screen, Z-score against plate average and StDev
[6] = Sigma LOPAC single-point screen, ADP-Glo Max raw signal per well
[7] = Sigma LOPAC single-point screen, Z-score from plate average and StDev
[8] = LOPAC single-point screen, Z-score from plate average and StDev

T1 sequence (Q92551 whole entry): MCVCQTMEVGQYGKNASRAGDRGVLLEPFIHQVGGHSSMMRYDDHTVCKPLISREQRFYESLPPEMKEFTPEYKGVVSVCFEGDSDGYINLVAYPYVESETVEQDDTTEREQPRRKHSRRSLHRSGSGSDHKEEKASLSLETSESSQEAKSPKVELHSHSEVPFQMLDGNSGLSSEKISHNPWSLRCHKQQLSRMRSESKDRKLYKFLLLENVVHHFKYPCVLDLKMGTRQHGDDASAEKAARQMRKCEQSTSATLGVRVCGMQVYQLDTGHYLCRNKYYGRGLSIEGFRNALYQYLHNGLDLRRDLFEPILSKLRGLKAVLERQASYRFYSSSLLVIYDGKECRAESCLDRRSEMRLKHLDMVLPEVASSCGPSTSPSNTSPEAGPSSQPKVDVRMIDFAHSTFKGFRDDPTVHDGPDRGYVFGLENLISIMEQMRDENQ

| Structure (SMILES) | Raw Signal [1] | Raw Signal [3] | Z-score [4] | further results |
| --- | --- | --- | --- | --- |
| Clc1ccc(N2C[C@H]3CC[C@@H](C2)N3)nn1 [DBO-83] | 54063 |  |  | Z-score [2]: -0.2242 |
| CCn1c(=O)[nH]c2cc(Cl)c(Cl)cc21 [DCEBIO] |  | 52025 | -0.6381 |  |
| CCC(=O)N1CCN(C(=O)c2ccccc2)CC1 [DM 235] | 55630 |  |  | Z-score [5]: 0.09402 |
| O=[N+]([O-])c1cc2nc(O)c(O)nc2cc1[N+](=O)[O-] [DNQX] |  | 50774 | -0.8922 |  |
| COc1cc(OC)cc(C(CNc2ncnc3c2ncn3[C@@H]2O[C@H](CO)[C@@H](O)[C@H]2O)c2ccccc2C)c1 (some centres unmarked) [DPMA] | 54367 |  |  | Z-score [2]: -0.1625 |
| CCN(CCCl)Cc1ccccc1Br.Cl [DSP-4 hydrochloride] | 57186 |  |  | Z-score [2]: -0.1281 |
| O=c1c(-c2ccc(O)cc2)coc2cc(O)ccc12 [Daidzein] |  |  |  | Raw Signal [6]: 57311; Z-score [7]: 0.4354 |
| C#C[C@]1(O)CC[C@H]2[C@@H]3CCC4=Cc5oncc5C[C@]4(C)[C@H]3CC[C@@]21C [Danazol] | 54357 |  |  | Z-score [2]: -0.1645 |
| O=C1CN(/N=C/c2ccc(-c3ccc([N+](=O)[O-])cc3)o2)C(O)=N1 [Dantrolene sodium] |  | 49715 | -1.107 |  |
| O=c1ccc2ccc(O)c(O)c2o1 [Daphnetin] | 55045 |  |  | Z-score [5]: -0.02478 |
| N=C(N)N1CCc2ccccc2C1 [Debrisoquin sulfate] |  | 61933 |  | Z-score [8]: 1.3741 |
| C[N+](C)(C)CCCCCCCCCC[N+](C)(C)C.[Br-].[Br-] [Decamethonium dibromide] |  | 52379 | -0.5662 |  |
| C[C@]12CC[C@H](OS(=O)(=O)[O-])CC1=CC[C@@H]1[C@@H]2CC[C@]2(C)C(=O)CC[C@@H]12.[Na+] [Dehydroisoandrosterone 3-sulfate sodium] | 55598 |  |  | Z-score [5]: 0.08752 |
| CN(C)[C@@H]1C(O)=C(C(N)=O)C(=O)[C@@]2(O)C(O)=C3C(=O)c4c(O)ccc(Cl)c4[C@@H](O)[C@H]3C[C@@H]12 [Demeclocycline hydrochloride] |  | 42734 | -2.525 |  |
| CN(N=O)c1cc(O)ccc1O [Dephostatin] | 55962 |  |  | Z-score [5]: 0.1615 |
| Cc1cc(N)c2ccccc2[n+]1CCCCCCCCCCCCCC[n+]1c(C)cc(N)c2ccccc21 [Dequalinium analog, C-14 linker] |  | 52424 | -0.5571 |  |
| Cc1cc(N)c2ccccc2[n+]1CCCCCCCCCC[n+]1c(C)cc(N)c2ccccc21 [Dequalinium dichloride] | 55705 |  |  | Z-score [5]: 0.1093 |
| CNCCCN1c2ccccc2CCc2ccccc21 [Desipramine hydrochloride] |  | 49945 | -1.061 |  |
| CN1CC[C@@]23CCCC[C@@H]2[C@@H]1Cc1ccc(O)cc13.O=C(O)C(O)C(O)C(=O)O [Dextrorphan D-tartrate] |  | 63036 |  | Z-score [8]: 1.598 |
| O=c1c2ccccc2[nH]c(=S)n1CCN1CCC(=C(c2ccc(F)cc2)c2ccc(F)cc2)CC1 [Diacylglycerol Kinase Inhibitor II] | 55319 |  |  | Z-score [5]: 0.03086 |

| Structure (SMILES) | Raw Signal [1] | Raw Signal [3] | Z-score [4] | further results |
| --- | --- | --- | --- | --- |
| Cc1nc2sccn2c(=O)c1CCN1CCC(=C(c2ccccc2)c2ccc(F)cc2)CC1 [Diacylglycerol kinase inhibitor I] |  |  |  | Raw Signal [6]: 59347; Z-score [7]: 0.8489 |
| CC1=NS(=O)(=O)c2cc(Cl)ccc2N1 [Diazoxide] |  |  |  | Raw Signal [6]: 58351; Z-score [7]: 0.6466 |
| O=C(O)Cc1ccccc1Nc1c(Cl)cccc1Cl [Diclofenac sodium] | 53274 |  |  | Z-score [2]: -0.3845 |
| O=C(O)CN(CCN(CC(=O)O)CC(=O)O)CCN(CC(=O)O)CC(=O)O [Diethylenetriaminepentaacetic acid] | 53021 |  |  | Z-score [2]: -0.4358 |
| Br.CO[C@H]1CC=C2CCN3CCC4=C(CC(=O)OC4)[C@]23C1 [Dihydro-beta-erythroidine hydrobromide] |  | 51044 | -0.8373 |  |
| COc1cc(CNC(=O)CCCCCCC(C)C)ccc1O [Dihydrocapsaicin] | 52937 |  |  | Z-score [2]: -0.2447 |
| CC(C)[C@@]1(NC(=O)[C@@H]2C[C@@H]3c4cccc5[nH]cc(c45)C[C@H]3N(C)C2)O[C@@]2(O)[C@@H]3CCCN3C(=O)[C@H](Cc3ccccc3)N2C1=O.CS(=O)(=O)O [Dihydroergocristine methanesulfonate] |  | 65195 |  | Z-score [8]: 2.037 |
| CN1C[C@H](C(=O)N[C@]2(C)O[C@@]3(O)[C@@H]4CCCN4C(=O)[C@H](Cc4ccccc4)N3C2=O)C[C@@H]2c3cccc4[nH]cc(c34)C[C@H]21 [Dihydroergotamine methanesulfonate] |  | 48691 | -1.315 |  |
| CC(C)[C@H]1CN[C@H](C(=O)O)[C@H]1CC(=O)O [Dihydrokainic acid] | 53229 |  |  | Z-score [2]: -0.3936 |
| C[C@@H]1O[C@@H](O[C@H]2C[C@@H](O)[C@]3(CO)[C@H]4[C@H](O)C[C@]5(C)[C@@H]([C@@H]6COC(=O)C6)CC[C@]5(O)[C@@H]4CC[C@]3(O)C2)[C@H](O)[C@H](O)[C@H]1O [Dihydroouabain] |  | 48437 | -1.3668 |  |
| COc1cc(C(=O)OCCCN2CCCN(CCCOC(=O)c3cc(OC)c(OC)c(OC)c3)CC2)cc(OC)c1OC [Dilazep hydrochloride] | 56027 |  |  | Z-score [5]: 0.1747 |
| COc1ccc([C@@H]2Sc3ccccc3N(CCN(C)C)C(=O)[C@@H]2OC(C)=O)cc1 [Diltiazem hydrochloride] |  | 65486 |  | Z-score [8]: 2.096 |
| CN(C)CCOC(c1ccccc1)c1ccccc1 [Diphenhydramine hydrochloride] | 54459 |  |  | Z-score [2]: -0.1438 |
| c1ccc2c(c1)[I+]c1ccccc1-2 [Diphenyleneiodonium chloride] |  |  |  | Raw Signal [6]: 59663; Z-score [7]: 0.9131 |
| CCCN(CCC)CCc1ccc(O)c(O)c1 [Dipropyldopamine hydrobromide] |  | 52448 | -0.5522 |  |
| OCCN(CCO)c1nc(N2CCCCC2)c2nc(N(CCO)CCO)nc(N3CCCCC3)c2n1 [Dipyridamole] |  | 52429 | -0.5561 |  |
| CC(C)N(CCC(C(N)=O)(c1ccccc1)c1ccccn1)C(C)C (centres unmarked) [Disopyramide phosphate] | 54365 |  |  | Z-score [2]: -0.1629 |
| CC(C)N(CCC(C(N)=O)(c1ccccc1)c1ccccn1)C(C)C (centres unmarked) [Disopyramide] |  | 43822 | -2.304 |  |
| CC(CCc1ccc(O)cc1)NCCc1ccc(O)c(O)c1 (centres unmarked) [Dobutamine hydrochloride] |  | 52494 | -0.5429 |  |
| O=c1[nH]c2ccccc2n1CCCN1CCC(n2c(=O)[nH]c3cc(Cl)ccc32)CC1 [Domperidone] |  | 51707 | -0.7027 |  |

| Structure (SMILES) | Raw Signal [1] | Raw Signal [3] | Z-score [4] | further results |
| --- | --- | --- | --- | --- |
| NCCc1ccc(O)c(O)c1 [Dopamine hydrochloride] |  | 44704 | -2.125 |  |
| COc1cc2nc(N3CCN(C(=O)C4COc5ccccc5O4)CC3)nc(N)c2cc1OC (centres unmarked) [Doxazosin mesylate] |  |  |  | Raw Signal [6]: 57817; Z-score [7]: 0.5382 |
| CN(C)CCC=C1c2ccccc2COc2ccccc21 [Doxepin hydrochloride] |  |  |  | Raw Signal [6]: 58742; Z-score [7]: 0.726 |
| C[C@H]1c2cccc(O)c2C(=O)C2=C(O)[C@]3(O)C(=O)C(C(N)=O)=C(O)[C@@H](N(C)C)[C@@H]3[C@@H](O)[C@@H]21 [Doxycycline hydrochloride] |  | 51944 | -0.6546 |  |
| CN(C)CCOC(C)(c1ccccc1)c1ccccn1 (centres unmarked) [Doxylamine succinate] |  | 49925 | -1.065 |  |
| O=C(CCCN1CC=C(n2c(=O)[nH]c3ccccc32)CC1)c1ccc(F)cc1 [Droperidol] |  | 49359 | -1.18 |  |
| COc1c2c(nc3ccccc13)OC(C(C)(O)CO)C2 (centres unmarked) [Dubinidine] |  | 52835 | -0.4736 |  |
| CC(C)CC(NC(=O)C1OC1C(=O)O)C(=O)NCCCCNC(=N)N (centres unmarked) [E-64] |  |  |  | Raw Signal [6]: 60196; Z-score [7]: 1.021 |
| CCCCCCCCCCCCCCCCCCOCC(COP(=O)([O-])OCC[N+](C)(C)C)OC (centres unmarked) [ET-18-OCH3] |  | 51314 | -0.7825 |  |
| O=c1c2ccccc2[se]n1-c1ccccc1 [Ebselen] | 54986 |  |  | Z-score [5]: -0.03677 |
| CC[N+](C)(C)c1cccc(O)c1 [Edrophonium chloride] |  |  |  | Raw Signal [6]: 58129; Z-score [7]: 0.6015 |
| CCC1(C2=NCCN2)Cc2ccccc2O1 (centres unmarked) [Efaroxan hydrochloride] | 53966 |  |  | Z-score [2]: -0.2439 |
| Cc1c2ccncc2c(C)c2c1[nH]c1ccccc12 [Ellipticine] |  | 50782 | -0.8906 |  |
| CC[C@H]1CN2CCc3cc(OC)c(OC)cc3[C@@H]2C[C@@H]1C[C@H]1NCCc2cc(OC)c(OC)cc21 [Emetine dihydrochloride hydrate] | 52998 |  |  | Z-score [2]: -0.4405 |
| Cc1cc(O)c2c(c1)C(=O)c1cc(O)cc(O)c1C2=O [Emodin] |  |  |  | Raw Signal [6]: 61234; Z-score [7]: 1.232 |
| O=C(O)[C@@H]1[C@H](C(=O)O)[C@H]2CC[C@@H]1O2 [Endothall] |  |  |  | Raw Signal [6]: 58370; Z-score [7]: 0.6505 |
| CSc1ccc(C(=O)c2[nH]c(=O)[nH]c2C)cc1 [Enoximone] |  | 64614 |  | Z-score [8]: 1.919 |
| CC(C)C[C@H](NC(=O)[C@H](O)[C@H](N)Cc1ccccc1)C(=O)O [Epibestatin hydrochloride] | 58771 |  |  | Z-score [5]: 0.1511 |
